US20090186000A1, “USE OF THYMOSIN ALPHA 1 FOR PREPARING A MEDICAMENT FOR THE TREATMENT OF STAGE IV MALIGNANT MELANOMA” (SIGMA-TAU INDUSTRIE FARMACEUTICHE RIUNITE S.P.A., priority 2006, published 2009)
Ends that are not written are not given here.

What was measured:
[1] = tested on: metastatic melanoma; conditions: cited from earlier work
[2] = tested on: lymphosarcoma cells; conditions: BALB/c mice; cited from earlier work
[3] = tested on: human non-small cell lung cancer (NSCLC) cells; conditions: subcutaneous, 1 or 10 mg per day; nude mice inoculated with human NSCLC cells; cited from earlier work
[4] = tested on: stage IV melanoma characterized by distant unresectable metastases; assay: Phase II clinical trial, tumor response by RECIST criteria; assay type: in vivo, human; conditions: preliminary analysis on 142 patients; higher doses of Tα1
Experimental: Trial Design phase II, randomized, stratified, open-study testing different doses of Tα1 in association with DTIC and IFNα, as first line therapy for stage IV melanoma patients characterized by distant unresectable metastases (AJCC; Journal of Clinical Oncology 2001, 19: 3635-3648) without brain metastases. The primary study end-point was tumor response, and the following combination composition were used: • DTIC (800 mg/m^2)+IFNα (3 MIU)+Tα1 (1.6 mg) (97 pts); • DTIC (800 mg/m^2)+IFNα (3 MIU)+Tα1 (3.2 mg) (97 pts); • DTIC (800 mg/m^2)+Tα1 (3.2 mg) (98 pts); • DTIC (800 mg/m^2)+IFNα (3 MIU) (94 pts);
The five groups were analyzed independently one another within the so-called “pick the winner” strategy.
Methods: Recycling every 28 days, patients were administered DTIC (800 mg/m^2) i.v. at day 1, Tα1 (1.6, 3.2 or 6.4 mg) s.c. at days 8-11 and 15-18, and IFNα (3 MIU) s.c. at day 11 and 18. Clinical response was evaluated every two cycles according to RECIST criteria (New Guidelines to Evaluate the Response to Treatment in Solid Tumors; Journal of the National Cancer Institute, 2000. 92: 205-216) utilizing a central reader.
The randomized patients were stratified according to the disease site: M1a, M1b or M1c level.
1) Patients with cutaneous, subcutaneous and/or limphnodal metastases with normal serum LDH value (from 96 to 460 U/L) were classified as M1a. […]

[5] = DTIC alone, metastatic melanoma

Molecule | actual overall responses ([1]; DTIC alone, metastatic melanoma, J Clin Oncol and ASCO proceedings 2004) | duration of responses (short-lived) [1, 5] | effect of responses on patients' overall survival [1, 5] | DTIC efficacy ([1]; literature population similar to 16% M1a, 25% M1b, 59% M1c) [%] | liver and lung metastases [2] | local sarcoma growth [2] | tumor volume [3] | dose-response effect on tumor response [4]
CN(C)/N=N/c1[nH]cnc1C(N)=O [DTIC, Dacarbazine] | 5.5-6.8% | three to six | no evidence that these responses have any effect on the patients' overall survival | 5 | – | – | – | –
thymosin alpha 1 (SDAAVDTSSEITTKDLKEKKEVVEEAEN; ends and bridges not checked; UniProt P06454 2-29, looked up) [a compound well known in the medical field] | – | – | – | – | significantly reduced | significantly reduced | significantly decreased | clear dose-response effect
